Measurements: PubChem BioAssay AID328 (DTP/NCI, 2004)
Values joined by “and” are separate entries in the source; they are usually repeats but may differ in a detail not shown here. Equal entries are not always repeated. Toxic doses and inconclusive results are not listed.

System: BDF1 mice, P388 leukemia ip, median survival T/C
Test: NCI In Vivo Anticancer Drug Screen. Data for tumor model P388 Leukemia (intraperitoneal) in B6D2F1 (BDF1) mice
Settings: endpoint: median survival time, higher = longer survival
Procedure, shortened: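 Each value expresses how treatment altered survival: treated-mouse outcome over vehicle-mouse outcome, both groups bearing the transplanted tumour.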

[1] = dose: 100.0 mg/kg/injection, schedule: Q01DX001 (ip), vehicle: Klucel (hydroxypropylcellulose) (HPC)
[2] = dose: 200.0 mg/kg/injection, schedule: Q01DX001 (ip), vehicle: Klucel (hydroxypropylcellulose) (HPC)
[3] = dose: 400.0 mg/kg/injection, schedule: Q01DX001 (ip), vehicle: Klucel (hydroxypropylcellulose) (HPC)
[4] = dose: 12.5 mg/kg/injection, schedule: Q01DX009 (ip), vehicle: saline with Tween-80
[5] = dose: 100.0 mg/kg/injection, schedule: Q04DX003 (ip), vehicle: Klucel (hydroxypropylcellulose) (HPC)
[6] = dose: 200.0 mg/kg/injection, schedule: Q04DX003 (ip), vehicle: Klucel (hydroxypropylcellulose) (HPC)
[7] = dose: 400.0 mg/kg/injection, schedule: Q04DX003 (ip), vehicle: Klucel (hydroxypropylcellulose) (HPC)
[8] = dose: 100.0 mg/kg/injection, schedule: Q01DX009 (ip), vehicle: Klucel (hydroxypropylcellulose) (HPC)
[9] = dose: 200.0 mg/kg/injection, schedule: Q01DX009 (ip), vehicle: Klucel (hydroxypropylcellulose) (HPC)
[10] = dose: 400.0 mg/kg/injection, schedule: Q04DX003 (ip), vehicle: saline with Tween-80
[11] = dose: 100.0 mg/kg/injection, schedule: Q01DX009 (ip), vehicle: saline with Tween-80
[12] = dose: 100.0 mg/kg/injection, schedule: Q04DX003 (ip), vehicle: saline with Tween-80
[13] = dose: 200.0 mg/kg/injection, schedule: Q01DX009 (ip), vehicle: saline with Tween-80
[14] = dose: 200.0 mg/kg/injection, schedule: Q04DX003 (ip), vehicle: saline with Tween-80
[15] = dose: 50.0 mg/kg/injection, schedule: Q04DX003 (ip), vehicle: saline with Tween-80
[16] = dose: 25.0 mg/kg/injection, schedule: Q01DX009 (ip), vehicle: saline with Tween-80

COC(OC)c1cc(=O)[nH]c(=S)[nH]1
T/C [1]: 100 % of control
T/C [2]: 109 % of control
T/C [3]: 90 % of control

CC(=O)OC1C=CCC2C(=O)C34CC=CC(OC(C)=O)C3(C(=O)c3ccccc3C4=O)C(=O)C12 (configuration not stated)
T/C (dose: 3.12 mg/kg/injection, schedule: Q01DX009 (ip), vehicle: saline): 95 % of control
T/C (dose: 12.5 mg/kg/injection, schedule: Q01DX009 (ip), vehicle: saline): 95 % of control
T/C (dose: 25.0 mg/kg/injection, schedule: Q01DX009 (ip), vehicle: saline): 114 % of control

CC(C)(C#N)Nc1ccccc1
T/C (dose: 3.13 mg/kg/injection, schedule: Q01DX009 (ip), vehicle: saline with Tween-80): 90 % of control and 100 % of control
T/C (dose: 6.25 mg/kg/injection, schedule: Q01DX009 (ip), vehicle: saline with Tween-80): 90 % of control and 95 % of control
T/C [4]: 95 % of control

CC1(C)C/C(=C\c2ccc(Cl)cc2)C(=O)c2ccccc21
T/C [5]: 100 % of control
T/C [6]: 100 % of control
T/C [7]: 91 % of control

Cn1ncc2c(N)c(C#N)c(=O)[nH]c21
T/C (dose: 100.0 mg/kg/injection, schedule: Q01DX001 (ip), vehicle: saline with Tween-80): 114 % of control

FC(F)(F)c1cc(NC(=S)N2c3ccccc3-n3cccc3C2c2cccnc2)cc(C(F)(F)F)c1 (configuration not stated)
T/C (dose: 50.0 mg/kg/injection, schedule: Q01DX009 (ip), vehicle: Klucel (hydroxypropylcellulose) (HPC)): 97 % of control
T/C [8]: 89 % of control
T/C [9]: 91 % of control

COc1cc(/C=N\NC(=O)c2cccc(Cl)c2)ccc1N(CCCl)CCCl
T/C (dose: 264.0 mg/kg/injection, schedule: Q04DX003 (ip), vehicle: saline with Tween-80): 173 % of control
T/C [10]: 234 % of control
T/C (dose: 600.0 mg/kg/injection, schedule: Q04DX003 (ip), vehicle: saline with Tween-80): 260 % of control

Cc1nc2c(=O)[nH]n(C)c2nc1C
T/C [11]: 97 % of control
T/C [12]: 95 % of control
T/C [13]: 97 % of control
T/C [14]: 94 % of control
T/C [10]: 99 % of control

O=[N+]([O-])c1cc(C(F)(F)F)ccc1/C=C/c1ccccc1Br
T/C (dose: 75.0 mg/kg/injection, schedule: Q04DX003 (ip), vehicle: saline with Tween-80): 86 % of control
T/C (dose: 150.0 mg/kg/injection, schedule: Q04DX003 (ip), vehicle: saline with Tween-80): 90 % of control
T/C (dose: 300.0 mg/kg/injection, schedule: Q04DX003 (ip), vehicle: saline with Tween-80): 100 % of control

CC(Sc1ncnc2nc[nH]c12)c1ccccc1 (configuration not stated)
T/C (dose: 50.0 mg/kg/injection, schedule: Q04DX003 (ip), vehicle: Klucel (hydroxypropylcellulose) (HPC)): 100 % of control
T/C [5]: 100 % of control
T/C [6]: 110 % of control

O=S(=O)(Cc1ccccc1)C(Cl)(Cl)c1ccccc1
T/C [15]: 100 % of control
T/C [12]: 104 % of control
T/C [14]: 109 % of control

Nc1ccccc1SC1CC(=O)N(c2cccc3ccccc23)C1=O (configuration not stated)
T/C [8]: 118 % of control
T/C [5]: 104 % of control
T/C [9]: 118 % of control
T/C [6]: 100 % of control
T/C (dose: 400.0 mg/kg/injection, schedule: Q01DX009 (ip), vehicle: Klucel (hydroxypropylcellulose) (HPC)): 100 % of control
T/C [7]: 90 % of control

CC(=O)C(C)(NCc1ccccc1)c1ccccc1 (configuration not stated)
T/C (dose: 45.0 mg/kg/injection, schedule: Q01DX001 (ip), vehicle: saline): 104 % of control
T/C (dose: 85.0 mg/kg/injection, schedule: Q01DX001 (ip), vehicle: saline): 108 % of control and 116 % of control
T/C (dose: 100.0 mg/kg/injection, schedule: Q01DX001 (ip), vehicle: saline): 109 % of control
T/C (dose: 135.0 mg/kg/injection, schedule: Q01DX001 (ip), vehicle: saline): 120 % of control
T/C (dose: 200.0 mg/kg/injection, schedule: Q01DX001 (ip), vehicle: saline): 104 % of control
T/C (dose: 300.0 mg/kg/injection, schedule: Q01DX001 (ip), vehicle: saline): 100 % of control
T/C (dose: 400.0 mg/kg/injection, schedule: Q01DX001 (ip), vehicle: saline): 104 % of control

COc1ccccc1NC(=O)CSC(N)=O
T/C [8]: 110 % of control
T/C [9]: 120 % of control
T/C (dose: 264.0 mg/kg/injection, schedule: Q01DX009 (ip), vehicle: Klucel (hydroxypropylcellulose) (HPC)): 113 % of control and 120 % of control

C[C@]12CC[C@H]3[C@@H](CC[C@@H]4C[C@@H](O)CC[C@@]43C=O)[C@]13O[C@@H]3CC2c1ccc(=O)oc1 (some centres not stated)
T/C (dose: 0.25 mg/kg/injection, schedule: Q01DX009 (ip), vehicle: Klucel (hydroxypropylcellulose) (HPC)): 100 % of control
T/C (dose: 0.5 mg/kg/injection, schedule: Q01DX009 (ip), vehicle: Klucel (hydroxypropylcellulose) (HPC)): 98 % of control
T/C (dose: 1.0 mg/kg/injection, schedule: Q01DX009 (ip), vehicle: Klucel (hydroxypropylcellulose) (HPC)): 98 % of control
T/C (dose: 2.0 mg/kg/injection, schedule: Q01DX009 (ip), vehicle: Klucel (hydroxypropylcellulose) (HPC)): 100 % of control

Cc1c(F)cc(I)cc1[N+](=O)[O-]
T/C [1]: 113 % of control
T/C [2]: 104 % of control
T/C [3]: 118 % of control

O=c1[nH]c2c(ccc3cccnc32)c2c1CCC2
T/C [12]: 92 % of control
T/C [10]: 93 % of control

COc1cc(O)c2c(c1O)C(=O)c1cc(C)ncc1C2=O
T/C [11]: 91 % of control
T/C [13]: 91 % of control
T/C (dose: 400.0 mg/kg/injection, schedule: Q01DX009 (ip), vehicle: saline with Tween-80): 91 % of control

CCOC(=O)C/C(C)=N/NC(=O)CC(=O)N/N=C(\C)CC(=O)OCC
T/C (dose: 75.0 mg/kg/injection, schedule: Q01DX009 (ip), vehicle: saline): 109 % of control
T/C (dose: 150.0 mg/kg/injection, schedule: Q01DX009 (ip), vehicle: saline): 105 % of control
T/C (dose: 300.0 mg/kg/injection, schedule: Q01DX009 (ip), vehicle: saline): 103 % of control

COC(=O)N1C=Cc2ccccc2C1C#N (configuration not stated)
T/C (dose: 25.0 mg/kg/injection, schedule: Q01DX001 (ip), vehicle: other): 104 % of control
T/C [16]: 105 % of control
T/C (dose: 25.0 mg/kg/injection, schedule: Q04DX003 (ip), vehicle: saline with Tween-80): 100 % of control
T/C (dose: 50.0 mg/kg/injection, schedule: Q01DX001 (ip), vehicle: other): 90 % of control
T/C (dose: 50.0 mg/kg/injection, schedule: Q01DX009 (ip), vehicle: saline with Tween-80): 110 % of control
T/C [15]: 104 % of control
T/C (dose: 100.0 mg/kg/injection, schedule: Q01DX001 (ip), vehicle: other): 86 % of control
T/C [11]: 110 % of control
T/C [12]: 100 % of control

COc1ccc2c(c1)CCC1=C2C=C[P+]1(C)C
T/C [4]: 92 % of control
T/C [16]: 111 % of control

CCOC(=O)c1[nH]c2c(c1CC(CC)[N+](=O)[O-])CCCC2 (configuration not stated)
T/C [5]: 95 % of control
T/C [6]: 100 % of control
T/C [7]: 91 % of control

Nc1nc(C(F)(F)F)c(CCCCc2ccccc2)c(=O)[nH]1
T/C [1]: 111 % of control
T/C [2]: 117 % of control
T/C [3]: 98 % of control

CCOC(=O)C1=C2c3ccc4ccccc4c3CCC2(C)C(=O)C1 (configuration not stated)
T/C (dose: 10.0 mg/kg/injection, schedule: Q01DX009 (sc), vehicle: steriod suspending solution): 104 % of control
T/C (dose: 18.0 mg/kg/injection, schedule: Q04DX003 (sc), vehicle: steriod suspending solution): 91 % of control
T/C (dose: 20.0 mg/kg/injection, schedule: Q01DX009 (sc), vehicle: steriod suspending solution): 95 % of control
T/C (dose: 37.5 mg/kg/injection, schedule: Q04DX003 (sc), vehicle: steriod suspending solution): 95 % of control
T/C (dose: 40.0 mg/kg/injection, schedule: Q01DX009 (sc), vehicle: steriod suspending solution): 100 % of control
T/C (dose: 75.0 mg/kg/injection, schedule: Q04DX003 (sc), vehicle: steriod suspending solution): 108 % of control
